Like-named read-outs stand apart in the source and are kept apart here.
Experiments:
B44:02 = system: B44:02; design: method as in PMID 26375851; conditions: B lymphoblastoid cell lines; cited from earlier work
H-2Db [1] = target: T1, H-2Db (Mus musculus, UniProt P01899); assay: Brefeldin A (BFA) decay assay of pMHC complexes at the cell surface; type: cell-based; design: endogenous in cells; host or cells: RMA-S (TAP2-deficient mouse T cell line); conditions: for t1/2 (peptide half-life of pMHC complex): BFA decay assay, RMA-S cells kept overnight at 26°C, pulsed with 20 μM peptide 1 h at 26°C, BFA added, decay at 37°C, B22 anti-H-2Db staining, flow cytometry, exponential fit; for Off-rates: converted from BFA decay half-life as log(2)/half-life (s)
T1 sequence (P01899 25-362): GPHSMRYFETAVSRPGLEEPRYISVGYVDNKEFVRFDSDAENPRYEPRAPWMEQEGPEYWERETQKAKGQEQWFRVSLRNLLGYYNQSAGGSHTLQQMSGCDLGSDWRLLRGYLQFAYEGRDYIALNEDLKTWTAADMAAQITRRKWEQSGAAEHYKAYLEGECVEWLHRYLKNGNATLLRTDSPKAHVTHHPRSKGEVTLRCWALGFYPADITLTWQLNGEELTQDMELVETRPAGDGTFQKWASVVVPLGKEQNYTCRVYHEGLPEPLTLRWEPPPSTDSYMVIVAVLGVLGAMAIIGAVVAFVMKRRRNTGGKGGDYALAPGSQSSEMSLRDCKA
T1 sequence (P01887 21-119 partner): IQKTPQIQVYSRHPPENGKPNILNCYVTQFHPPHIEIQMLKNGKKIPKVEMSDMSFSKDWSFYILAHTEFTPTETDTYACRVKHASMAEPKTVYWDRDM
Procedure: Dissociation of pMHC complexes at the cell surface was assessed by BFA decay assay as described previously ([17]). RMA-S cells were incubated overnight at 26°C to maximize MHC-I surface expression. After being washed, 5 × 10^5 cells per well of a 96-U-bottom plate were pulsed, at different time intervals, with peptides (final concentration of 20 μM) for 1 h at 26°C. After washing with medium, de novo transport of MHC-I to the cell surface was blocked by the addition of BFA, and peptide-loaded RMA-S cells were incubated at 37°C to allow decay of unstable molecules. Cells were washed in FACS buffer and stained with B22 primary monoclonal Abs (conformation sensitive anti-H-2Db MAb) and goat anti-mouse IgG-PE secondary Abs (Abcam, Cambridge, UK) to detect peptide-loaded MHC-I molecules. Samples were analyzed by flow cytometry on a Fortessa X20 flow cytometer (BD, Oxford, UK), and data were analyzed with the Diva software. MFI values were background deducted by subtracting the MFI value obtained in the DMSO control at the last time point. Half-lives and off-rate constants were then determined by fitting the curves using an exponential trend line in the Excel software (Microsoft, USA).
We experimentally measured the stability of pMHC complexes by following their decay from the cell surface over time (“BFA decay assay” in Figure 2A), and used these measurements to calculate the corresponding unbinding rates of the peptides from MHC (Table 1; Figure S3 in Supplementary Material). Finally, to incorporate the effect of IFNγ into the model, we specified a new parameter (γ) that quantifies the increased supply of MHC and tapasin following IFNγ treatment.

E10 Fab = E10 Fab surface staining of peptide-pulsed RMA-S cells (flow cytometry); type: binding; conditions: flow cytometry surface staining of RMA-S cells pulsed with peptides
H-2Db [2] = target: T1, H-2Db; assay: pMHC competition assay in co-transfected B6 fibroblasts; surface pMHC quantified with Qifikit beads, cytoplasmic peptide with mCherry beads; type: cell-based; conditions: for surface expression of ASN variant–H2Db: IFNγ-treated fibroblasts, E10 Fab staining; for change of surface expression of peptide–H2Db complexes with IFNγ: fibroblasts treated with IFNγ for 48 h versus untreated; for number of pMHC complexes presented on the cell surface: untreated fibroblasts, 1C3 Mab, Qifikit calibration beads
Procedure: Fibroblasts were seeded at 2 × 10^5 cells per 6 cm diameter Petri dish. When IFNγ treatment was applied, 1 µg of mouse IFNγ (Peprotech, Rocky Hill, USA) was added per Petri dish 4 h after seeding. Cells were transfected the following day with TransIT-LT1 (Mirus, Madison, USA) following the manufacturer’s recommendations using 2.5 µg of each Venus-Ub-peptide and mCherry-Ub-peptide constructs. 1 day after transfection cells were stained for 45 min on ice with primary reagents, 1C3 hybrid Mab neat supernatant, E10 purified Fab, B22, or Y3 purified Mabs to detect surface pMHC complexes. After washing, cells were incubated for 45 min with AF647-conjugated goat anti-human IgG (used after Fab primary) or goat anti-mouse (after mouse antibodies including 1C3) (Invitrogen/Molecular Probes, Eugene, USA). Flow cytometry was performed using a Fortessa X20 cytometer (BD) and the data were analyzed using FACS Diva software (BD).
mCherry flow cytometry calibration beads (Clontech/Takara, USA) were used, as recommended by the manufacturer, to calibrate the amount of mCherry molecules, equivalent to the number of peptide molecules expressed in the transfected cells. Beads were run through the flow cytometer using the same setup as for acquiring cells.
The number of […]-H2Db complexes presented on the cell surface was estimated using Qifikit beads (Dako, Glostrup, Denmark). Beads were treated as recommended by the manufacturer but stained with AF647-conjugated goat anti-mouse IgG (Invitrogen) at the same dilution as used to detect the 1C3 Mab on transfected cells. A calibration curve was drawn by plotting the MFI of the 5 peaks (x-axis) versus the lot-specific numbers of antibody molecules per bead (y-axis). The curve was then used to calculate the number of […]-H2Db complexes presented on the cell surface expressed in antibody-binding capacity units (number of primary mouse monoclonal antibodies per cell).
To establish how variation in the intracellular abundance of competing peptides influences cell surface presentation, we developed an assay in which intracellular peptide supply and pMHC cell surface abundance could be measured simultaneously (Figure 1A), assay adapted from Ref. ([35]). Furthermore, this method measures the abundance of peptides actually presented at the surface of living cells and not, as for quantitative high-throughput methods, the abundance of peptides remaining bound to MHC after biochemical purification of pMHC I complexes from cell lysates. Two fluorescent fusion proteins, Venus-ubiquitin-[…] (faster off-rate, see Table 1) and mCherry-ubiquitin-[…] (slower off-rate) are co-expressed in fibroblasts. Once expressed in the cytoplasm, the fusion proteins are cleaved by endogenous cytoplasmic ubiquitin hydrolases, releasing the peptides at an equimolecular ratio to their respective fluorescent reporter protein (Figure 1A) that can be quantified by flow cytometry ([36]) (Figure S1 in Supplementary Material). Using this system, the generation of peptides bypasses the proteasome. After translocation into the ER, peptides compete for loading onto MHC-I molecules and are transported to the cell surface where they can be quantified by flow cytometry (Figure 1A). Both fusion proteins were naturally expressed at a broad range of concentrations after transient transfection, allowing in a single experiment to compare peptide surface presentation in cells expressing low to high levels of both fusion proteins (Figure 1B). To analyze competition between both peptides, cells were partitioned into different gates according to their expression level of mCherry, reporter for the level of expression of […], and Venus, reporter for the level of […] (Figure 1B). Competition was then assessed by plotting surface expression of […]-H2Db as a function of increasing cytoplasmic expression of the […] target peptide for increasing levels of competing peptide (Venus levels 1–7 in Figure 1B). […]

NIT-1 insulinoma cells = conditions: cited from earlier work; for enhancement of presentation by IFNγ: NIT-1 cells
From the text: IFNγ is well known to stimulate the immune system, increasing expression of MHC-I heavy chain, β2-microglobulin, subunits of the immunoproteasome (MECL1, LMP2, and LMP7), TAP, tapasin, the ER aminopeptidase associated with antigen processing (ERAAP) ([41]) and the tapasin-related protein (TAPBPR); it is produced as part of the immune response against viruses. ...

H-2Dd = H-2Dd (Mus musculus, UniProt P01900); conditions: H-2Dd binding CT26 epitope; cited from earlier work
[3] = mCherry-SSLENFRAYV at around 10^4 MFI units
[4] = NIT-1 cells after IFNγ treatment

| Sequence | t1/2 (peptide half-life of pMHC complex) (H-2Db [1]) [min] | Off-rates (H-2Db [1]) [s⁻¹] | E10 score (E10 Fab binding to peptide–H2Db complexes) (E10 Fab) [MFI/1000] | further results |
| --- | --- | --- | --- | --- |
| AETPDIKLF [human peptide derived from the RS5 protein, eluted from B44:02 complexes] | – | – | – | copies eluted from B44:02 complexes (B44:02): around 45,000 copies |
| ASNENMETL | 191 | 6.1e-05 | 11.8 | – |
| ASNENLETM | 238 | 4.9e-05 | 4.1 | – |
| ASNENMETI | 212 | 5.4e-05 | 13.1 | – |
| ASIENMETM | 456 | 2.5e-05 | 8.9 | – |
| ASNEAMETM | 43 | 0.00027 | 8.2 | surface expression of ASN variant–H2Db (H-2Db [2]): unable to reach or remain at the cell surface at detectable levels |
| ASNENMETM | 223 | 5.2e-05 | 11.5 | change of surface expression of peptide–H2Db complexes with IFNγ (H-2Db [2]): increased around fourfold; ASNENMETM expression required to inhibit SSLENFRAYV presentation by 50%, with IFNγ compared to non-IFNγ-treated cells (H-2Db [2]; [3]): around ten times more |
| SYFPEITHI | – | – | – | presentation, copies per cell (NIT-1 insulinoma cells; [4]): ~ 15,000 copies per cell; enhancement of presentation by IFNγ (NIT-1 insulinoma cells): 7.5 fold increase; presentation, copies per cell (NIT-1 insulinoma cells; untreated NIT-1 cells): ~ 2,000 copies per cell |
| ASNENMETV | 132 | 8.8e-05 | 16.8 | surface expression of ASN variant–H2Db (H-2Db [2]): unable to reach or remain at the cell surface at detectable levels |
| GGPESFYCASW | – | – | – | half-life (H-2Dd): 20 min |
| ASIENLETM | 502 | 2.3e-05 | 1.8 | – |
| ASNENMETA | 52 | 0.00022 | 14.2 | surface expression of ASN variant–H2Db (H-2Db [2]): unable to reach or remain at the cell surface at detectable levels |
| SSLENFRAYV | 408 | 2.8e-05 | 3.8 | change of surface expression of peptide–H2Db complexes with IFNγ (H-2Db [2]): increased around fourfold; cytoplasmic expression at which surface expression could be detected (H-2Db [2]; mCherry calibration beads): ~10^6 copies per cell; cytoplasmic expression in transfected cells (H-2Db [2]; mCherry calibration beads, maximum): up to 10^8 copies per cell; cell surface abundance in the absence of competitor (H-2Db [2]; [3]): around 4 × 10^4 complexes; copies expressed at the cell surface in the absence of competition (H-2Db [2]; mCherry-SSLENFRAYV at around 10^4 MFI units, printed in brackets after non-IFNγ-treated cells): 25 × 10^4 copies; number of pMHC complexes presented on the cell surface (H-2Db [2]; absence of ASNENMETM competition): up to 80,000 pMHC complexes; number of pMHC complexes presented on the cell surface (H-2Db [2]; highest level of ASNENMETM competitor): ≤ 10,000 pMHC complexes |
| VYLKTNVFK | – | – | – | presentation, copies per cell (NIT-1 insulinoma cells; [4]): 25 copies per cell; enhancement of presentation by IFNγ (NIT-1 insulinoma cells): 25 fold increase; presentation, copies per cell (NIT-1 insulinoma cells; untreated NIT-1 cells): 1 copies per cell |

— PMC6041393, “A Mechanistic Model for Predicting Cell Surface Presentation of Competing Peptides by MHC Class I Molecules” (Frontiers in Immunology, 2018)
